Test results published in the supplement of paper PMC10627819.

Legend:
[1] = test system: S. aureus DSM 20231; test: fitness (endpoint OD595 vs no drug) (fraction); higher = more growth
In short: (§1)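 Growth medium was TSB, LB Lennox or CY, and plates were kept at 37 °C. Inoculation was at OD595 0.01 in 384-well plates, at 30 µl per well or 55 µl for S. pneumoniae. OD595 was monitored every 30 min for 14 h and background-subtracted using the first reading. Fitness is the optical density on entering stationary phase divided by the robust mean of no-drug controls, with values capped at 1.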

[2] = test system: B. subtilis 168; test: as above
In short: as §1

[3] = test system: S. aureus DSM 20231; test: Bliss interaction score (quartile over a dose matrix) (fitness difference); higher = more antagonism (negative = synergy)
In short: (§2)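 At entry into stationary phase, OD595 was recorded and divided by the robust mean of the no-drug wells on that plate, with any value above 1 set to 1. This gives the fitness measure used throughout. Single-drug fitness was inferred from combination data, and the Bliss score, observed minus product-expected fitness, is shown as quartiles across technical, biological and donor/recipient replicates.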

[4] = test system: B. subtilis 168; test: as above
In short: as §2

[5] = test system: S. aureus Newman; test: as above
In short: as §2

[6] = test system: S. pneumoniae D39V; test: as above
In short: as §2

[7] = test system: S. aureus Newman; test: fitness (endpoint OD595 vs no drug) (fraction); higher = more growth; settings: main component drawn
In short: as §1

[8] = test system: S. pneumoniae D39V; test: as above
In short: as §1
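Wherever Bliss interaction score (quartile over a dose matrix) is given: first quartile when negative (synergy) and third quartile when positive (antagonism).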

COc1cccc2c1C(=O)c1c(O)c3c(c(O)c1C2=O)C[C@@](O)(C(=O)CO)C[C@@H]3O[C@H]1C[C@H](N)[C@H](O)[C@H](C)O1 [Doxorubicin] + COc1cc(Cc2cnc(N)nc2N)cc(OC)c1OC [Trimethoprim]
fitness
Settings | partner 0.125 µg/mL | partner 0.25 µg/mL | partner 0.5 µg/mL | partner 1 µg/mL
[1], first compound 0.625 µg/mL | 0.683 | 0.557 | 0.175 | 0.0314
[1], first compound 1.25 µg/mL | 0.742 | 0.56 | 0.0868 | 0.0177
[1], first compound 2.5 µg/mL | 0.728 | 0.523 | 0.0302 | 0.0244
[2], first compound 0.625 µg/mL | 0.628 | 0.489 | 0.435 | –
[2], first compound 1.25 µg/mL | 0.582 | – | 0.421 | –
[2], first compound 2.5 µg/mL | 0.469 | 0.393 | 0.37 | –

fitness, [2], one replicate
Settings | partner 0.1 µg/mL | partner 0.2 µg/mL | partner 0.4 µg/mL | partner 1 µg/mL | partner 2 µg/mL
first compound 0.625 µg/mL | 0.868 | 0.699 | 0.524 | 0.278 | 0.222
first compound 1.25 µg/mL | 0.849 | 0.646 | 0.504 | 0.228 | 0.152
first compound 2.5 µg/mL | 0.799 | 0.559 | 0.391 | 0.126 | 0.0762

Settings | Bliss interaction score
[3] | -0.0539
[4] | -0.0392
[5] | 0.0879
[6] | -0.179

Cc1ncc([N+](=O)[O-])n1CCO [Metronidazole] + CCCCCCCCCC(=O)N[C@@H]1[C@H]([C@@H]([C@H](O[C@H]1OC2=C3C=C4C=C2OC5=C(C=C(C=C5)[C@H]([C@H]6C(=O)N[C@@H](C7=C(C(=CC(=C7)O)OC8[C@H]([C@H]([C@@H]([C@H](O8)CO)O)O)O)C9=C(C=CC(=C9)[C@H](C(=O)N6)NC(=O)[C@@H]4NC(=O)[C@@H]1C2=CC(=CC(=C2)OC2=C(C=CC(=C2)[C@H](C(=O)N[C@H](CC2=CC(=C(O3)C=C2)Cl)C(=O)N1)N)O)O)O)C(=O)O)O[C@H]1[C@@H]([C@H]([C@@H]([C@H](O1)CO)O)O)NC(=O)C)Cl)CO)O)O [Teicoplanin]
fitness
Settings | first compound 0.625 µg/mL | first compound 0.781 µg/mL | first compound 1.25 µg/mL | first compound 1.562 µg/mL | first compound 2.5 µg/mL | first compound 3.124 µg/mL
[1], partner 0.1562 µg/mL, main component drawn | 0.967 | – | ≥ 1 | – | ≥ 1 | –
[1], partner 0.3125 µg/mL, main component drawn | ≥ 1 | – | ≥ 1 | – | ≥ 1 | –
[1], partner 0.625 µg/mL, main component drawn | ≥ 1 | – | ≥ 1 | – | ≥ 1 | –
[7], partner 0.1562 µg/mL, one replicate | – | ≥ 1 | – | ≥ 1 | – | ≥ 1
[7], partner 0.3125 µg/mL, one replicate | – | ≥ 1 | – | 0.961 | – | 0.989
[7], partner 0.62 µg/mL, one replicate | 0.82 | – | 0.795 | – | 0.81 | –
[7], partner 0.625 µg/mL, one replicate | – | 0.845 | – | 0.805 | – | 0.836
[7], partner 1.24 µg/mL, one replicate | 0.745 | – | 0.774 | – | 0.76 | –
[7], partner 2.48 µg/mL, one replicate | 0.492 | – | 0.505 | – | 0.486 | –

fitness, [7]
Settings | first compound 0.625 µg/mL | first compound 1.25 µg/mL | first compound 2.5 µg/mL
partner 0.1562 µg/mL | 0.976 | 0.979 | –
partner 0.3125 µg/mL | 0.988 | 0.973 | 0.933
partner 0.625 µg/mL | 0.927 | 0.925 | 0.752

main component drawn
Settings | Bliss interaction score
[3] | 0.0308
[4] | 0.0689
[5] | 0.0581
[6] | 0.126

C[C@@H]1O[C@@H]1P(=O)(O)O [Fosfomycin] + CCC[C@@H]1C[C@@H](C(=O)N[C@@H]([C@H]2O[C@H](SC)[C@H](O)[C@@H](O)[C@H]2O)[C@@H](C)O)N(C)C1 [Lincomycin]
fitness
Settings | partner 0.1 µg/mL | partner 0.2 µg/mL | partner 0.215 µg/mL | partner 0.4 µg/mL | partner 0.43 µg/mL | partner 0.8 µg/mL | partner 0.86 µg/mL
[1], first compound 0.781 µg/mL | 0.645 | 0.508 | – | 0.137 | – | – | –
[1], first compound 1.562 µg/mL | 0.515 | 0.32 | – | 0.0482 | – | – | –
[1], first compound 3.124 µg/mL | 0.387 | 0.0895 | – | 0.0388 | – | – | –
[2], first compound 1.562 µg/mL | 0.689 | 0.707 | – | 0.705 | – | – | –
[2], first compound 3.124 µg/mL | 0.616 | 0.591 | – | 0.61 | – | – | –
[2], first compound 6.248 µg/mL | 0.469 | 0.429 | – | 0.476 | – | – | –
[8], first compound 1.25 µg/mL | – | 0.606 | 0.812 | 0.365 | 0.698 | 0.0632 | 0.499
[8], first compound 2.5 µg/mL | – | 0.58 | 0.823 | 0.317 | 0.683 | 0.0611 | 0.45
[8], first compound 5 µg/mL | – | 0.511 | 0.785 | 0.285 | 0.691 | 0.0462 | 0.394

fitness, [2], one replicate
Settings | first compound 1.562 µg/mL | first compound 3.124 µg/mL | first compound 6.248 µg/mL
partner 0.8 µg/mL | 0.719 | 0.572 | 0.466
partner 1.6 µg/mL | 0.695 | 0.537 | 0.436

Settings | Bliss interaction score
[3] | -0.158
[4] | 0.0718
[5] | -0.31
[6] | 0.0737

C[C@@H]1O[C@@H]1P(=O)(O)O [Fosfomycin] + CCCCCCCCCC(=O)N[C@@H]1[C@H]([C@@H]([C@H](O[C@H]1OC2=C3C=C4C=C2OC5=C(C=C(C=C5)[C@H]([C@H]6C(=O)N[C@@H](C7=C(C(=CC(=C7)O)OC8[C@H]([C@H]([C@@H]([C@H](O8)CO)O)O)O)C9=C(C=CC(=C9)[C@H](C(=O)N6)NC(=O)[C@@H]4NC(=O)[C@@H]1C2=CC(=CC(=C2)OC2=C(C=CC(=C2)[C@H](C(=O)N[C@H](CC2=CC(=C(O3)C=C2)Cl)C(=O)N1)N)O)O)O)C(=O)O)O[C@H]1[C@@H]([C@H]([C@@H]([C@H](O1)CO)O)O)NC(=O)C)Cl)CO)O)O [Teicoplanin]
fitness
Settings | first compound 0.781 µg/mL | first compound 1.562 µg/mL | first compound 3.124 µg/mL
[1], partner 0.1562 µg/mL, main component drawn | 0.863 | 0.698 | 0.538
[1], partner 0.3125 µg/mL, main component drawn | 0.968 | 0.831 | –
[1], partner 0.625 µg/mL, main component drawn | 0.933 | 0.862 | 0.654
[7], partner 0.62 µg/mL, one replicate | 0.715 | 0.682 | 0.522
[7], partner 1.24 µg/mL, one replicate | 0.646 | 0.616 | 0.472
[7], partner 2.48 µg/mL, one replicate | 0.461 | 0.234 | 0.0834

fitness, [7]
Settings | first compound 0.781 µg/mL | first compound 1.562 µg/mL | first compound 3.124 µg/mL
partner 0.1562 µg/mL | 0.58 | 0.525 | 0.127
partner 0.3125 µg/mL | 0.568 | 0.534 | 0.261
partner 0.625 µg/mL | 0.663 | 0.582 | 0.348

main component drawn
Settings | Bliss interaction score
[3] | 0.154
[4] | -0.078
[5] | 0.177
[6] | 0.065
